Reference: ChEMBL document CHEMBL1124634, “Synthesis and antirhinovirus activity of 6-(dimethylamino)-2-(trifluoromethyl)-9-(substituted benzyl)-9H-purines” (J Med Chem, 1989)

What was measured:
Human rhinovirus sp. [1] = test: Antiviral activity against rhinoviral-1B serotype in a plaque inhibition assay using monolayers of M-HeLa cells; type: functional, organism-based
Human rhinovirus sp. [2] = test: Antiviral activity against rhinoviral 29 serotype in a plaque inhibition assay using monolayers of M-HeLa cells; type: functional, organism-based
Human rhinovirus sp. [3] = test: Antiviral activity against rhinoviral 2 serotype in a plaque inhibition assay using monolayers of M-HeLa cells; type: functional, organism-based
Human rhinovirus sp. [4] = test: Antiviral activity against rhinoviral 30 serotype in a plaque inhibition assay using monolayers of M-HeLa cells; type: functional, organism-based
Human rhinovirus sp. [5] = test: Antiviral activity against rhinoviral 4 serotype in a plaque inhibition assay using monolayers of M-HeLa cells; type: functional, organism-based
Human rhinovirus sp. [6] = test: Antiviral activity against rhinoviral 8 serotype in a plaque inhibition assay using monolayers of M-HeLa cells; type: functional, organism-based
Human rhinovirus sp. [7] = test: Antiviral activity against rhinoviral 14 serotype in a plaque inhibition assay using monolayers of M-HeLa cells; type: functional, organism-based
Human rhinovirus sp. [8] = test: Antiviral activity against rhinoviral 15 serotype in a plaque inhibition assay using monolayers of M-HeLa cells; type: functional, organism-based
Human rhinovirus sp. [9] = test: Antiviral activity against rhinoviral 16 serotype in a plaque inhibition assay using monolayers of M-HeLa cells; type: functional, organism-based
Human rhinovirus sp. [10] = test: Antiviral activity against rhinoviral 12 serotype in a plaque inhibition assay using monolayers of M-HeLa cells; type: functional, organism-based
Human rhinovirus sp. [11] = test: Antiviral activity against rhinoviral-18 serotype in a plaque inhibition assay using monolayers of M-HeLa cells; type: functional, organism-based
Human rhinovirus sp. [12] = test: Antiviral activity against rhinoviral-19 serotype in a plaque inhibition assay using monolayers of M-HeLa cells; type: functional, organism-based
Human rhinovirus sp. [13] = test: Antiviral activity against rhinoviral-1A serotype in a plaque inhibition assay using monolayers of M-HeLa cells; type: functional, organism-based
Human rhinovirus sp. [14] = test: Percent inhibitory activity at 8 uM against rhinoviral 13 serotype in a plaque inhibition assay using monolayers of M-HeLa cells; type: functional
Human rhinovirus sp. [15] = test: Percent inhibitory activity at 8 uM against rhinoviral 21 serotype in a plaque inhibition assay using monolayers of M-HeLa cells; type: functional
Human rhinovirus sp. [16] = test: Percent inhibitory activity at 8 uM against rhinoviral 3 serotype in a plaque inhibition assay using monolayers of M-HeLa cells; type: functional
Human rhinovirus sp. [17] = test: Antiviral activity against rhinoviral 5 serotype in a plaque inhibition assay using monolayers of M-HeLa cells; type: functional, organism-based
Human rhinovirus sp. [18] = test: Antiviral activity against rhinoviral 9 serotype in a plaque inhibition assay using monolayers of M-HeLa cells; type: functional, organism-based
Human rhinovirus sp. [19] = test: Antiviral activity against rhinoviral 31 serotype in a plaque inhibition assay using monolayers of M-HeLa cells; type: functional, organism-based
Human rhinovirus sp. [20] = test: Percent inhibitory activity at 8 uM against rhinoviral 15 serotype in a plaque inhibition assay using monolayers of M-HeLa cells; type: functional
Human rhinovirus sp. [21] = test: Percent inhibitory activity at 8 uM against rhinoviral 19s erotype in a plaque inhibition assay using monolayers of M-HeLa cells; type: functional
Human rhinovirus sp. [22] = test: Percent inhibitory activity at 8 uM against rhinoviral 29 serotype in a plaque inhibition assay using monolayers of M-HeLa cells; type: functional
Human rhinovirus sp. [23] = test: Percent inhibitory activity at 8 uM against rhinoviral 30 serotype in a plaque inhibition assay using monolayers of M-HeLa cells; type: functional
Human rhinovirus sp. [24] = test: Antiviral activity against rhinoviral 18 serotype in a plaque inhibition assay using monolayers of M-HeLa cells; type: functional, organism-based
Human rhinovirus sp. [25] = test: Antiviral activity against rhinoviral 19 serotype in a plaque inhibition assay using monolayers of M-HeLa cells; type: functional, organism-based
Human rhinovirus sp. [26] = test: Antiviral activity against rhinoviral 3 serotype in a plaque inhibition assay using monolayers of M-HeLa cells; type: functional, organism-based
Human rhinovirus sp. [27] = test: Percent inhibitory activity at 8 uM against rhinoviral 31 serotype in a plaque inhibition assay using monolayers of M-HeLa cells; type: functional
Human rhinovirus sp. [28] = test: Percent inhibitory activity at 8 uM against rhinoviral 5 serotype in a plaque inhibition assay using monolayers of M-HeLa cells; type: functional

In the case of `CN(C)c1nc(C(F)(F)F)nc2c1ncn2Cc1ccc(Cl)c([N+](=O)[O-])c1`, the IC50 (Human rhinovirus sp. [1]) is reported as 2.1 µM.

With `CN(C)c1nc(C(F)(F)F)nc2c1ncn2Cc1ccc(C#N)cc1` the IC50 (Human rhinovirus sp. [1]) was 0.3 µM.

Work on `CN(C)c1nc(C(F)(F)F)nc2c1ncn2Cc1ccccc1N` yielded an IC50 (Human rhinovirus sp. [1]) of 1.7 µM.

In the case of `COc1cc(Cn2cnc3c(N(C)C)nc(C(F)(F)F)nc32)ccc1C`, the IC50 (Human rhinovirus sp. [1]) is reported as > 1 µM.

`COc1ccccc1Cn1cnc2c(N(C)C)nc(C(F)(F)F)nc21` gave an IC50 (Human rhinovirus sp. [1]) of 5.6 µM.

`CN(C)c1nc(C(F)(F)F)nc2c1ncn2Cc1ccc(Cl)c(Cl)c1` showed an IC50 (Human rhinovirus sp. [2]) of 4.8 µM, an IC50 (Human rhinovirus sp. [3]) of 6.1 µM and an IC50 (Human rhinovirus sp. [4]) of 7.5 µM. For the same molecule, the IC50 (Human rhinovirus sp. [5]) was 8.4 µM, the IC50 (Human rhinovirus sp. [6]) was 11 µM and the IC50 (Human rhinovirus sp. [7]) was 10 µM. The IC50 (Human rhinovirus sp. [8]) was 3.7 µM, the IC50 (Human rhinovirus sp. [9]) was 0.74 µM and the IC50 (Human rhinovirus sp. [10]) was 5.1 µM. For the same molecule, the IC50 (Human rhinovirus sp. [11]) was 8.1 µM, the IC50 (Human rhinovirus sp. [12]) was 5.4 µM and the IC50 (Human rhinovirus sp. [13]) was 0.73 µM. It also gave an IC50 (Human rhinovirus sp. [1]) of 0.12 µM, an Inhibition (Human rhinovirus sp. [14]) of 23% and an Inhibition (Human rhinovirus sp. [15]) of 29%. For the same molecule, the Inhibition (Human rhinovirus sp. [16]) was 40%, the IC50 (Human rhinovirus sp. [17]) was > 8 µM and the IC50 (Human rhinovirus sp. [18]) was 0.71 µM. For the same molecule, the IC50 (Human rhinovirus sp. [19]) was 13 µM.

Work on `CN(C)c1nc(C(F)(F)F)nc2c1ncn2Cc1ccccc1F` yielded an IC50 (Human rhinovirus sp. [1]) of 0.15 µM.

With `Cc1cc(C)cc(Cn2cnc3c(N(C)C)nc(C(F)(F)F)nc32)c1` the IC50 (Human rhinovirus sp. [1]) was > 1.3 µM.

`Cc1ccc(Cn2cnc3c(N(C)C)nc(C(F)(F)F)nc32)c(C)c1` was tested, and the IC50 (Human rhinovirus sp. [3]) was 2.8 µM, the IC50 (Human rhinovirus sp. [5]) was 7.6 µM and the IC50 (Human rhinovirus sp. [6]) was > 8 µM. For the same molecule, the IC50 (Human rhinovirus sp. [7]) was 11 µM, the IC50 (Human rhinovirus sp. [9]) was 1.2 µM and the IC50 (Human rhinovirus sp. [10]) was 7.2 µM. The IC50 (Human rhinovirus sp. [11]) was 6.1 µM, the IC50 (Human rhinovirus sp. [13]) was 0.83 µM and the IC50 (Human rhinovirus sp. [1]) was 0.11 µM. It also gave an Inhibition (Human rhinovirus sp. [14]) of 13%, an Inhibition (Human rhinovirus sp. [20]) of 30% and an Inhibition (Human rhinovirus sp. [21]) of 36%. It also gave an Inhibition (Human rhinovirus sp. [15]) of 16%, an Inhibition (Human rhinovirus sp. [22]) of 20% and an Inhibition (Human rhinovirus sp. [16]) of 40%. The IC50 (Human rhinovirus sp. [17]) was > 8 µM, the IC50 (Human rhinovirus sp. [18]) was 0.95 µM and the Inhibition (Human rhinovirus sp. [23]) was 33%. It also gave an IC50 (Human rhinovirus sp. [19]) of 13 µM.

With `CN(C)c1nc(C(F)(F)F)nc2c1ncn2Cc1ccc(CN)cc1` the IC50 (Human rhinovirus sp. [1]) was 0.2 µM.

Molecule `CN(C)c1nc(C(F)(F)F)nc2c1ncn2Cc1cccc(Br)c1` has an IC50 (Human rhinovirus sp. [1]) of 0.06 µM.

`CN(C)c1nc(C(F)(F)F)nc2c1ncn2Cc1cccc(NC=O)c1` gave an IC50 (Human rhinovirus sp. [1]) of 0.74 µM.

In the case of `CCCCc1ccc(Cn2cnc3c(N(C)C)nc(C(F)(F)F)nc32)cc1`, the IC50 (Human rhinovirus sp. [1]) is reported as 0.78 µM.

Molecule `CN(C)c1cc(Cl)ccc1Cn1cnc2c(N(C)C)nc(C(F)(F)F)nc21` has an IC50 (Human rhinovirus sp. [1]) of 180 µM.

In the case of `CN(C)c1nc(C(F)(F)F)nc2c1ncn2Cc1ccc(Cl)cc1N`, the IC50 (Human rhinovirus sp. [1]) is reported as 0.47 µM.

`CN(C)c1nc(C(F)(F)F)nc2c1ncn2Cc1ccc(OCc2ccccc2)cc1` gave an IC50 (Human rhinovirus sp. [1]) of 4.4 µM.

`CSc1ccc(Cn2cnc3c(N(C)C)nc(C(F)(F)F)nc32)cc1` gave an IC50 (Human rhinovirus sp. [24]) of 10 µM, an IC50 (Human rhinovirus sp. [25]) of 2.5 µM and an IC50 (Human rhinovirus sp. [2]) of 2.6 µM. It also gave an IC50 (Human rhinovirus sp. [3]) of 4.5 µM, an IC50 (Human rhinovirus sp. [4]) of 7.9 µM and an IC50 (Human rhinovirus sp. [5]) of 3.8 µM. The IC50 (Human rhinovirus sp. [6]) was 7.2 µM, the IC50 (Human rhinovirus sp. [7]) was 7.6 µM and the IC50 (Human rhinovirus sp. [8]) was 4.5 µM. It also gave an IC50 (Human rhinovirus sp. [9]) of 0.81 µM, an IC50 (Human rhinovirus sp. [10]) of 5.2 µM and an IC50 (Human rhinovirus sp. [13]) of 0.57 µM. It also gave an IC50 (Human rhinovirus sp. [1]) of 0.07 µM, an Inhibition (Human rhinovirus sp. [14]) of 35% and an Inhibition (Human rhinovirus sp. [15]) of 35%. For the same molecule, the Inhibition (Human rhinovirus sp. [16]) was 39%, the IC50 (Human rhinovirus sp. [17]) was > 8 µM and the IC50 (Human rhinovirus sp. [18]) was 1 µM. It also gave an IC50 (Human rhinovirus sp. [19]) of 8.6 µM.

With `CN(C)c1nc(C(F)(F)F)nc2c1ncn2Cc1ccc(-c2ccccc2)cc1` the IC50 (Human rhinovirus sp. [1]) was 14 µM.

In the case of `CN(C)c1cc(Cn2cnc3c(N(C)C)nc(C(F)(F)F)nc32)ccc1Cl`, the IC50 (Human rhinovirus sp. [1]) is reported as > 0.2 µM.

Work on `COc1cc(Cn2cnc3c(N(C)C)nc(C(F)(F)F)nc32)ccc1Cl` yielded an IC50 (Human rhinovirus sp. [1]) of 0.68 µM.

With `CN(C)c1nc(C(F)(F)F)nc2c1ncn2Cc1cccc(O)c1` the IC50 (Human rhinovirus sp. [1]) was 0.95 µM.

With `CN(C)c1nc(C(F)(F)F)nc2c1ncn2Cc1ccccc1Cl` the IC50 (Human rhinovirus sp. [2]) was 4.2 µM, the IC50 (Human rhinovirus sp. [3]) was 9.4 µM and the IC50 (Human rhinovirus sp. [26]) was 9 µM. For the same molecule, the IC50 (Human rhinovirus sp. [5]) was 10 µM, the IC50 (Human rhinovirus sp. [6]) was 7.9 µM and the IC50 (Human rhinovirus sp. [7]) was 8 µM. The IC50 (Human rhinovirus sp. [9]) was 4.3 µM, the IC50 (Human rhinovirus sp. [10]) was 8.1 µM and the IC50 (Human rhinovirus sp. [11]) was 13 µM. It also gave an IC50 (Human rhinovirus sp. [13]) of 4 µM, an IC50 (Human rhinovirus sp. [1]) of 0.2 µM and an Inhibition (Human rhinovirus sp. [14]) of 24%. It also gave an Inhibition (Human rhinovirus sp. [20]) of 30%, an Inhibition (Human rhinovirus sp. [21]) of 27% and an Inhibition (Human rhinovirus sp. [15]) of 38%. The Inhibition (Human rhinovirus sp. [27]) was 38%, the Inhibition (Human rhinovirus sp. [28]) was 24% and the IC50 (Human rhinovirus sp. [18]) was 1.9 µM. It also gave an Inhibition (Human rhinovirus sp. [23]) of 31%.

Work on `CN(C)c1nc(C(F)(F)F)nc2c1ncn2Cc1ccc(NC=O)cc1` yielded an IC50 (Human rhinovirus sp. [1]) of 0.18 µM.
